Data reported in patent US8063021B2, “Ketolide anti-infective compounds” (Kosan Biosciences Incorporated, priority 2003, dated 2011).

Legend:
S. aureus ATCC 6538p = assay: microdilution assay MIC, S. aureus ATCC 6538p; assay type: cell-based, Staphylococcus aureus; conditions: erythromycin sensitive strain, average where multiple assays
Protocol: (§1) In Table B, in some instances multiple assays were performed for a compound/strain combination, in which case the reported MIC is the average. S. pneumoniae ATCC 6301, ATCC 700671, and ATCC 49619 and S. aureus ATCC 6538p and ATCC 29213 are erythromycin sensitive strains.

S. aureus ATCC 14154 = assay: microdilution assay MIC, S. aureus ATCC 14154; assay type: cell-based, Staphylococcus aureus; conditions: S. aureus ATCC 14154, erythromycin A resistant strain; average where multiple assays
Protocol: (§2) In Table B, in some instances multiple assays were performed for a compound/strain combination, in which case the reported MIC is the average.

S. aureus ATCC 29213 = assay: microdilution assay MIC, S. aureus ATCC 29213; assay type: cell-based, Staphylococcus aureus; conditions: S. aureus ATCC 29213, erythromycin sensitive strain; average where multiple assays
Protocol: as §1

S. pneumoniae ATCC 6301 = assay: microdilution assay MIC, S. pneumoniae ATCC 6301; assay type: cell-based, Streptococcus pneumoniae; conditions: S. pneumoniae ATCC 6301, erythromycin sensitive strain; average where multiple assays
Protocol: as §1

[1] = test system: S. pneumoniae ATCC 700671; assay: microdilution assay MIC, S. pneumoniae ATCC 700671; assay type: cell-based, Streptococcus pneumoniae; conditions: S. pneumoniae ATCC 700671, erythromycin sensitive strain; average where multiple assays
Protocol: as §1

[2] = test system: S. pneumoniae ATCC 700676; assay: microdilution assay MIC, S. pneumoniae ATCC 700676; assay type: cell-based, Streptococcus pneumoniae; conditions: S. pneumoniae ATCC 700676, erythromycin A resistant strain; average where multiple assays
Protocol: as §1

[3] = test system: S. pneumoniae ATCC 700677; assay: microdilution assay MIC, S. pneumoniae ATCC 700677; assay type: cell-based, Streptococcus pneumoniae; conditions: S. pneumoniae ATCC 700677, erythromycin A resistant strain; average where multiple assays
Protocol: as §1

[4] = test system: S. pneumoniae ATCC 700905; assay: microdilution assay MIC, S. pneumoniae ATCC 700905; assay type: cell-based, Streptococcus pneumoniae; conditions: S. pneumoniae ATCC 700905, erythromycin A resistant strain; average where multiple assays
Protocol: as §1

[5] = test system: S. pneumoniae ATCC 700906; assay: microdilution assay MIC, S. pneumoniae ATCC 700906; assay type: cell-based, Streptococcus pneumoniae; conditions: S. pneumoniae ATCC 700906, erythromycin A resistant strain; average where multiple assays
Protocol: as §2

S. pneumoniae ATCC 49619 = assay: microdilution assay MIC, S. pneumoniae ATCC 49619; assay type: cell-based, Streptococcus pneumoniae; conditions: S. pneumoniae ATCC 49619, erythromycin sensitive strain; average where multiple assays
Protocol: as §1

[6] = test system: S. epidermidis ATCC 12228; assay: microdilution assay MIC, S. epidermidis ATCC 12228; assay type: cell-based, Staphylococcus epidermidis; conditions: average where multiple assays
Protocol: as §1

E. faecalis ATCC 51575 = assay: microdilution assay MIC, E. faecalis ATCC 51575; assay type: cell-based, Enterococcus faecalis; conditions: average where multiple assays
Protocol: as §2

H. influenzae ATCC 9006 = assay: microdilution assay MIC, H. influenzae ATCC 9006; assay type: cell-based, Haemophilus influenzae; conditions: average where multiple assays
Protocol: as §1

H. influenzae ATCC 49766 = assay: microdilution assay MIC, H. influenzae ATCC 49766; assay type: cell-based, Haemophilus influenzae; conditions: average where multiple assays
Protocol: as §1

Row | SMILES | MIC (S. aureus ATCC 6538p) | MIC (S. aureus ATCC 14154) | MIC (S. aureus ATCC 29213) | MIC (S. pneumoniae ATCC 6301) | MIC [1] | MIC [2] | MIC [3] | MIC [4] | MIC [5] | MIC (S. pneumoniae ATCC 49619) | MIC [6] | MIC (E. faecalis ATCC 51575) | MIC (H. influenzae ATCC 9006) | MIC (H. influenzae ATCC 49766)
1 | CCN(C)CCC1OC(=O)C(C)C(=O)C(C)C(OC2OC(C)CC(N(C)C)C2O)C(C)(OC)CC(C)C(=O)C(C)C2NC(=O)OC12C (stereo not drawn) [Compound 101] | 6.25 µg/mL | 6.25 µg/mL | 6.25 µg/mL | 0.2 µg/mL | 0.39 µg/mL | 6.25 µg/mL | >12.5 µg/mL | 3.12 µg/mL | >12.5 µg/mL | 0.78 µg/mL | 6.25 µg/mL | 6.25 µg/mL | – | –
2 | COC1(C)CC(C)C(=O)C(C)C2NC(=O)OC2(C)C(CCN2CCCCC2)OC(=O)C(C)C(=O)C(C)C1OC1OC(C)CC(N(C)C)C1O (stereo not drawn) [Compound 102] | – | – | – | 0.098 µg/mL | 3.12 µg/mL | 0.78 µg/mL | >12.5 µg/mL | 0.098 µg/mL | >12.5 µg/mL | 0.2 µg/mL | – | – | 3.12 µg/mL | 6.25 µg/mL
3 | COC1(C)CC(C)C(=O)C(C)C2NC(=O)OC2(C)C(CCN(C)CCc2cccc(-c3ccco3)c2)OC(=O)C(C)C(=O)C(C)C1OC1OC(C)CC(N(C)C)C1O (stereo not drawn) [Compound 103] | 0.098 µg/mL | 0.39 µg/mL | 0.39 µg/mL | 0.049 µg/mL | 0.049 µg/mL | 0.049 µg/mL | 0.098 µg/mL | 0.049 µg/mL | >12.5 µg/mL | 0.049 µg/mL | 0.049 µg/mL | 12.5 µg/mL | >12.5 µg/mL | >12.5 µg/mL
4 | COC1(C)CC(C)C(=O)C(C)C2NC(=O)OC2(C)C(CCN(Cc2cccc(-c3ccco3)c2)Cc2cccc(-c3ccco3)c2)OC(=O)C(C)C(=O)C(C)C1OC1OC(C)CC(N(C)C)C1O (stereo not drawn) [Compound 104] | >12.5 µg/mL | 6.25 µg/mL | 6.25 µg/mL | 3.12 µg/mL | 3.12 µg/mL | 6.25 µg/mL | 6.25 µg/mL | >12.5 µg/mL | >12.5 µg/mL | >12.5 µg/mL | 6.25 µg/mL | 12.5 µg/mL | >12.5 µg/mL | >12.5 µg/mL
5 | COC1(C)CC(C)C(=O)C(C)C2NC(=O)OC2(C)C(CCNC(=O)Oc2cccc(-c3cccnc3)c2)OC(=O)C(C)C(=O)C(C)C1OC1OC(C)CC(N(C)C)C1O (stereo not drawn) [Compound 109] | – | – | – | 0.025 µg/mL | 0.025 µg/mL | 0.025 µg/mL | 0.025 µg/mL | 0.025 µg/mL | 0.025 µg/mL | 0.025 µg/mL | – | – | 1.56 µg/mL | 1.56 µg/mL
6 | COC1(C)CC(C)C(=O)C(C)C2NC(=O)OC2(C)C(CCNC(=O)Oc2cccc(-c3ccncc3)c2)OC(=O)C(C)C(=O)C(C)C1OC1OC(C)CC(N(C)C)C1O (stereo not drawn) [Compound 110] | – | – | – | 0.025 µg/mL | 0.025 µg/mL | 0.025 µg/mL | 0.025 µg/mL | 0.025 µg/mL | 0.049 µg/mL | 0.025 µg/mL | – | – | 1.56 µg/mL | 3.12 µg/mL
7 | COC1(C)CC(C)C(=O)C(C)C2NC(=O)OC2(C)C(CCNC(=O)Oc2cccc(-c3ccccc3)c2)OC(=O)C(C)C(=O)C(C)C1OC1OC(C)CC(N(C)C)C1O (stereo not drawn) [Compound 111] | – | – | – | 0.025 µg/mL | 0.025 µg/mL | 0.025 µg/mL | 0.025 µg/mL | 0.025 µg/mL | 0.025 µg/mL | 0.049 µg/mL | – | – | 1.56 µg/mL | 1.56 µg/mL
8 | COC1(C)CC(C)C(=O)C(C)C2NC(=O)OC2(C)C(CCNC(=O)Oc2ccc(-c3ccccc3)cc2)OC(=O)C(C)C(=O)C(C)C1OC1OC(C)CC(N(C)C)C1O (stereo not drawn) [Compound 112] | – | – | – | 0.025 µg/mL | 0.025 µg/mL | 0.025 µg/mL | 0.78 µg/mL | 0.025 µg/mL | 0.049 µg/mL | 0.049 µg/mL | – | – | 3.12 µg/mL | 6.25 µg/mL
9 | COC1(C)CC(C)C(=O)C(C)C2NC(=O)OC2(C)C(CCNC(=O)Oc2ccc3ccccc3c2)OC(=O)C(C)C(=O)C(C)C1OC1OC(C)CC(N(C)C)C1O (stereo not drawn) [Compound 113] | – | – | – | 0.025 µg/mL | 0.025 µg/mL | 0.025 µg/mL | 0.025 µg/mL | 0.025 µg/mL | 0.025 µg/mL | 0.025 µg/mL | – | – | 1.56 µg/mL | 1.56 µg/mL
10 | COC1(C)CC(C)C(=O)C(C)C2NC(=O)OC2(C)C(CCNC(=O)Oc2cccc3ccccc23)OC(=O)C(C)C(=O)C(C)C1OC1OC(C)CC(N(C)C)C1O (stereo not drawn) [Compound 114] | 0.025 µg/mL | 0.025 µg/mL | – | 0.025 µg/mL | 0.025 µg/mL | 0.098 µg/mL | 0.049 µg/mL | 0.025 µg/mL | 6.25 µg/mL | 0.049 µg/mL | – | – | – | 3.12 µg/mL
11 | COC1(C)CC(C)C(=O)C(C)C2NC(=O)OC2(C)C(CCNC(=O)OCC2c3ccccc3-c3ccccc32)OC(=O)C(C)C(=O)C(C)C1OC1OC(C)CC(N(C)C)C1O (stereo not drawn) [Compound 115] | – | – | – | 0.025 µg/mL | 0.025 µg/mL | 0.025 µg/mL | 0.025 µg/mL | 0.025 µg/mL | 0.025 µg/mL | 0.025 µg/mL | – | – | 0.78 µg/mL | 1.56 µg/mL
12 | COC1(C)CC(C)C(=O)C(C)C2NC(=O)OC2(C)C(CCNC(=O)Oc2ccc(F)cc2)OC(=O)C(C)C(=O)C(C)C1OC1OC(C)CC(N(C)C)C1O (stereo not drawn) [Compound 116] | – | – | – | 0.025 µg/mL | 0.025 µg/mL | 0.025 µg/mL | 0.39 µg/mL | 0.025 µg/mL | 0.098 µg/mL | 0.049 µg/mL | – | – | 3.12 µg/mL | 6.25 µg/mL
13 | COC1(C)CC(C)C(=O)C(C)C2NC(=O)OC2(C)C(CCNC(=O)OCC(C)C)OC(=O)C(C)C(=O)C(C)C1OC1OC(C)CC(N(C)C)C1O (stereo not drawn) [Compound 117] | – | – | – | 0.025 µg/mL | 0.098 µg/mL | 0.025 µg/mL | >12.5 µg/mL | 0.025 µg/mL | >12.5 µg/mL | 0.025 µg/mL | – | – | 6.25 µg/mL | 6.25 µg/mL
14 | COC(=O)NCCC1OC(=O)C(C)C(=O)C(C)C(OC2OC(C)CC(N(C)C)C2O)C(C)(OC)CC(C)C(=O)C(C)C2NC(=O)OC12C (stereo not drawn) [Compound 118] | 0.49 µg/mL | 0.39 µg/mL | – | 0.025 µg/mL | 0.049 µg/mL | 0.098 µg/mL | 0.39 µg/mL | 0.98 µg/mL | >12.5 µg/mL | 0.049 µg/mL | – | – | 6.25 µg/mL | 3.12 µg/mL
15 | COC1(C)CC(C)C(=O)C(C)C2NC(=O)OC2(C)C(CCNC(=O)Nc2cccc3ccccc23)OC(=O)C(C)C(=O)C(C)C1OC1OC(C)CC(N(C)C)C1O (stereo not drawn) [Compound 119] | – | – | – | 0.025 µg/mL | 0.049 µg/mL | 0.049 µg/mL | 0.78 µg/mL | 0.025 µg/mL | 0.098 µg/mL | 0.025 µg/mL | – | – | 6.25 µg/mL | 3.12 µg/mL
16 | CC[C@H]1OC(=O)[C@H](C)[C@@H](O[C@H]2C[C@@](C)(OC)[C@@H](O)[C@H](C)O2)[C@H](C)[C@@H](O[C@@H]2O[C@H](C)C[C@H](N(C)C)[C@H]2O)[C@](C)(O)C[C@@H](C)C(=O)[C@H](C)[C@@H](O)[C@]1(C)O [Ery A, erythromycin A, reference compound] | 0.098 µg/mL | – | 0.20 µg/mL | 0.025 µg/mL | 0.049 µg/mL | 6.25 µg/mL | 6.25 µg/mL | 3.12 µg/mL | – | 0.049 µg/mL | 0.20 µg/mL | – | 1.56 µg/mL | 6.25 µg/mL
